ChEMBL document CHEMBL1132455, “Retention of immunosuppressant activity in an ascomycin analogue lacking a hydrogen-bonding interaction with FKBP12” (J Med Chem, 1999)

Key:
[1] = species: Homo sapiens; assay: Immunosuppressive activity examined in an in vitro model of allogenic T-lymphocyte activation(by MLR assay); type: functional
[2] = biological target: Peptidyl-prolyl cis-trans isomerase FKBP1A (Homo sapiens, UniProt P62942); assay: The compound was tested for binding affinity against human FK506 binding protein 12
Chain of Peptidyl-prolyl cis-trans isomerase FKBP1A (P62942 whole entry): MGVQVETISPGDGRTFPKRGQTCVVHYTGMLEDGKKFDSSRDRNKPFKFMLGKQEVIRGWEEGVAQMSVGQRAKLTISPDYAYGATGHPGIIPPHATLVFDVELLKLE

[3] = species: Homo sapiens; assay: Immunosuppressive activity examined in an in vitro model of allogenic T-lymphocyte activation (by MLR assay); type: functional
[4] = test system: Rattus norvegicus; assay: The compound was tested in vivo for lympho-proliferation,against popliteal lymph node(inbred male rats) after i.p. administration; type: functional; settings: ip

With `CC[C@@H]1/C=C(\C)C[C@H](C)C[C@H](OC)[C@H]2O[C@@](O)(C(=O)C(=O)N3CCCC[C@H]3C(=O)O[C@H](/C(C)=C/[C@@H]3CC[C@@H](O)[C@H](OC)C3)[C@H](C)/C=C/C1=O)[C@H](C)C[C@@H]2OC` the IC50 [1] was 22 nM and the IC50 [2] was 529 nM.
`CC[C@@H]1/C=C(\C)C[C@H](C)C[C@H](OC)[C@H]2O[C@@](O)(C(=O)C(=O)N3CCCC[C@H]3C(=O)O[C@H](/C(C)=C/[C@@H]3CC[C@@H](O)[C@H](OC)C3)[C@H](C)CCC1=O)[C@H](C)C[C@@H]2OC` was tested, and the IC50 [3] was 0.15 nM, the IC50 [2] was 0.77 nM and the ED50 [4] was 0.65 mg/kg/day.
`CC[C@@H]1/C=C(\C)C[C@H](C)C[C@H](OC)[C@H]2O[C@@](O)(C(=O)C(=O)N3CCCC[C@H]3C(=O)O[C@H](/C(C)=C/[C@@H]3CC[C@@H](O)[C@H](OC)C3)[C@H](C)[C@@H](O)CC1=O)[C@H](C)C[C@@H]2OC` [ASCOMYCIN] gave an IC50 [3] of 0.26 nM and an ED50 [4] of 0.32 mg/kg/day.
`C=CC[C@@H]1/C=C(\C)C[C@H](C)C[C@H](OC)[C@H]2O[C@@](O)(C(=O)C(=O)N3CCCC[C@H]3C(=O)O[C@H](/C(C)=C/[C@@H]3CC[C@@H](O)[C@H](OC)C3)[C@H](C)[C@@H](O)CC1=O)[C@H](C)C[C@@H]2OC` [TACROLIMUS ANHYDROUS] was tested, and the IC50 [3] was 0.23 nM and the ED50 [4] was 0.15 mg/kg/day.
